Results reported in patent publication US20090275574A1, “NOVEL COMPOUNDS-300” (ASTRAZENECA AB, priority 2008, published 2009).

Columns and labels:
[1] = molecular target: T1, cloned human M4 receptor (Homo sapiens, UniProt P08173); experiment: hM4 receptor GTPγS binding; type: biochemical; conditions: CHO membranes expressing hM4, [35S]GTPγS binding
T1 construct: purchased Perkin-Elmer RBHM4M; host or cells: Chinese hamster ovary cells (CHO), membranes
T1 sequence (P08173 1-479): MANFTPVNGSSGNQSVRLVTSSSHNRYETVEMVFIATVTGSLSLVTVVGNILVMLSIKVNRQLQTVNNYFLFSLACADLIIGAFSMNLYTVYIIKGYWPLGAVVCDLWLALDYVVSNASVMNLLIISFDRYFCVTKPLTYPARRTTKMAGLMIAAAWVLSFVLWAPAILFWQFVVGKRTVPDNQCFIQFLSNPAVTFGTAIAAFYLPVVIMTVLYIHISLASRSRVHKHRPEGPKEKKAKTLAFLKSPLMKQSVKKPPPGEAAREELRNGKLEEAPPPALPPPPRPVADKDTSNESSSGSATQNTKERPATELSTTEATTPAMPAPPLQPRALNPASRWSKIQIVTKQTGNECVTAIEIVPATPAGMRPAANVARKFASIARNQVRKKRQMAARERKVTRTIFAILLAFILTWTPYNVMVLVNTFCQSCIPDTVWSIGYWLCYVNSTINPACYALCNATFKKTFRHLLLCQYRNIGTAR
Procedure: hM4 Receptor GTPγS Binding Membranes produced from Chinese hamster ovary cells (CHO) expressing the cloned human M4 receptor (human Muscarinic receptor subtype 4, gene bank access NM_000741), are obtained from Perkin-Elmer (RBHM4M). The membranes are thawed at 37° C., passed 3 times through a 23-gauge blunt-end needle, diluted in the GTPγS binding buffer (50 mM Hepes, 20 mM NaOH, 100 mM NaCl, 1 mM EDTA, 5 mM MgCl2, pH 7.4, 100 μM DTT). The EC50, IC50 and Emax of the compounds of the invention are evaluated from 10-point dose-response curves (three fold concentration range) done in 60 μl in 384-well non-specific binding surface plate (Corning). Ten microliters from the dose-response curves plate (5× concentration) are transferred to another 384 well plate containing 25 μl of the following: 10 μg of hM4 membranes, 500 μg of Flashblue beads (Perkin-Elmer) and GDP 40 μM. An additional 15 μl containing 3.3× (60,000 dpm) of GTPγ^35S (0.4 nM final) are added to the wells resulting in a total well volume of 50 μl. Basal and maximal stimulated [^35S]GTPγS binding are determined in absence and presence of 30 μM final of acetylcholine agonist. The membranes/beads mix are pre-incubated for 15 minutes at room temperature with 40 μM GDP prior to distribution in plates (20 μM final). The reversal of acetylcholine-induced stimulation (10 μM final) of [^35S]GTPγS binding is used to assay the antagonist properties (IC50) of the compounds. The plates are incubated for 60 minutes at room temperature then centrifuged at 400 rpm for 5 minutes. The radioactivity (cpm) is counted in a Trilux (Perkin-Elmer). Values of EC50, IC50 and Emax are obtained using sigmoidal fits of a non-linear curve-fitting program (XLfit version 4.2.2 Excel add-in version 4.2.2 build 18 math 1Q version 2.1.2 build 18) of percent stimulated [^35S]GTPγS binding vs. log(molar ligand). All pEC50 and pIC50 values are reported as arithmetic means±standard error of mean of ‘n’ independent experiments.

[2] = molecular target: T2, hM1 (human Muscarinic receptor subtype 1) (Homo sapiens, UniProt P11229); experiment: Human M1 calcium mobilization FLIPR assay; type: cell-based; conditions: hM1 expressed in CHO cells, intracellular Ca2+ release (FLIPR)
T2 construct: expressed in transfected cells; host or cells: CHO cells (ATCC)
T2 sequence (P11229 1-460): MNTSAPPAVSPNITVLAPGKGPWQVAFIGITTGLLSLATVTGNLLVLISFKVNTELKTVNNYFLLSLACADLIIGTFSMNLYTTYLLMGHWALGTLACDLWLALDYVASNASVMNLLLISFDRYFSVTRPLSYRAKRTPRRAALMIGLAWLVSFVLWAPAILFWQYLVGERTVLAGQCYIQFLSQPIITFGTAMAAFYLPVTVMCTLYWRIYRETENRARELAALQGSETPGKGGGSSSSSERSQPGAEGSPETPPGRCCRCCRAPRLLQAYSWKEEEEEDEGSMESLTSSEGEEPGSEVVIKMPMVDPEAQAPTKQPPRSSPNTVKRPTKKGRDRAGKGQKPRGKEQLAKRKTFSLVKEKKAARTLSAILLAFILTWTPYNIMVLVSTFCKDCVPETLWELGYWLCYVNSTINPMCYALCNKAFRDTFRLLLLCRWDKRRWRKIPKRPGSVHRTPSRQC
How it was run: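 CHO cells expressing human M1, M3 or M5 receptors, dye-loaded 60 min at 37 °C; Ca2+ release read by FLIPR (510-570 nm). M3/M5 inhibition measured against 2 nM acetylcholine added after compound; M1 agonism from maximal RFU, others max minus min. pEC50/pIC50 from sigmoidal fits, 10-point three-fold dilutions.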

EC50 [1]: > 28.1 µM
EC50 [2]: 0.012 µM
Structure (SMILES): CCOC[C@@H]1CC[C@H](N2CCC(N3C(=O)CO[C@H]4CCCC[C@@H]43)CC2)C1 [Example 43, (4aS,8aS)-4-(1-((1S,3R)-3-(ethoxymethyl)cyclopentyl)piperidin-4-yl)hexahydro-2H-benzo[b][1,4]oxazin-3(4H)-one]
